Laboratory results reported in patent US20140005163A1 (NOVARTIS AG, priority 2010, published 2014).
In brackets after ≈: the same amount, converted by molar mass. Like-named read-outs stand apart in the source and are kept apart here.

Assays:
Solubility at pH 6.8 = assay type: physicochemical
In short: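 Solubility was measured at pH 6.8 following the cited Zhou et al. (2007) procedure.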

PI3K alpha = target: T1, PI3K alpha (Homo sapiens, UniProt P42336); test: PI3K alpha kinase assay (Kinase-Glo luminescence); assay type: biochemical
T1 construct: p85(iSH2) fusion partner (see partner chain) (N); His tag (C); made in house; host or cells: baculovirus; Tn5 (Trichoplusia ni) or TiniPro insect cells
In short: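 PI3K alpha at 10 nM with 1 μM ATP and 10 μg/mL phosphatidylinositol in 10 mM TRIS pH 7.5, 3 mM MgCl2, 50 mM NaCl, 0.05% CHAPS, 1 mM DTT, 60 min at room temperature. Remaining ATP read by Kinase-Glo luminescence. IC50 by 4-parameter fit over 8 concentrations.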

[1] = tested on: PKB Ser473 phosphorylation in Rat1-myr-HA-p110 beta cells; test: Reverse protein array assay, PKB Ser473 phosphorylation in Rat1-myr-p110 beta cells; assay type: cell-based; details: 0.5 h, pAkt Ser473, 30 minutes incubation, read-out: p-PKB IC50
In short: (§1)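 Measured: PKB Ser473 phosphorylation by reverse protein array in Rat1 cells expressing myr-HA-p110 alpha, beta or delta, after 30 min compound treatment at 37 °C with 0.2% DMSO vehicle.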

[2] = tested on: PKB Ser473 phosphorylation in Rat1-myr-HA-p110 delta cells; test: Reverse protein array assay, PKB Ser473 phosphorylation in Rat1-myr-p110 delta cells; assay type: cell-based; details: read-out: p-PKB IC50
In short: as §1

[3] = pH 6.8, aqueous buffer, thermodynamic from solid, read-out: solubility

T1 sequence (P42336 with tags, fused parts or gaps limits assumed): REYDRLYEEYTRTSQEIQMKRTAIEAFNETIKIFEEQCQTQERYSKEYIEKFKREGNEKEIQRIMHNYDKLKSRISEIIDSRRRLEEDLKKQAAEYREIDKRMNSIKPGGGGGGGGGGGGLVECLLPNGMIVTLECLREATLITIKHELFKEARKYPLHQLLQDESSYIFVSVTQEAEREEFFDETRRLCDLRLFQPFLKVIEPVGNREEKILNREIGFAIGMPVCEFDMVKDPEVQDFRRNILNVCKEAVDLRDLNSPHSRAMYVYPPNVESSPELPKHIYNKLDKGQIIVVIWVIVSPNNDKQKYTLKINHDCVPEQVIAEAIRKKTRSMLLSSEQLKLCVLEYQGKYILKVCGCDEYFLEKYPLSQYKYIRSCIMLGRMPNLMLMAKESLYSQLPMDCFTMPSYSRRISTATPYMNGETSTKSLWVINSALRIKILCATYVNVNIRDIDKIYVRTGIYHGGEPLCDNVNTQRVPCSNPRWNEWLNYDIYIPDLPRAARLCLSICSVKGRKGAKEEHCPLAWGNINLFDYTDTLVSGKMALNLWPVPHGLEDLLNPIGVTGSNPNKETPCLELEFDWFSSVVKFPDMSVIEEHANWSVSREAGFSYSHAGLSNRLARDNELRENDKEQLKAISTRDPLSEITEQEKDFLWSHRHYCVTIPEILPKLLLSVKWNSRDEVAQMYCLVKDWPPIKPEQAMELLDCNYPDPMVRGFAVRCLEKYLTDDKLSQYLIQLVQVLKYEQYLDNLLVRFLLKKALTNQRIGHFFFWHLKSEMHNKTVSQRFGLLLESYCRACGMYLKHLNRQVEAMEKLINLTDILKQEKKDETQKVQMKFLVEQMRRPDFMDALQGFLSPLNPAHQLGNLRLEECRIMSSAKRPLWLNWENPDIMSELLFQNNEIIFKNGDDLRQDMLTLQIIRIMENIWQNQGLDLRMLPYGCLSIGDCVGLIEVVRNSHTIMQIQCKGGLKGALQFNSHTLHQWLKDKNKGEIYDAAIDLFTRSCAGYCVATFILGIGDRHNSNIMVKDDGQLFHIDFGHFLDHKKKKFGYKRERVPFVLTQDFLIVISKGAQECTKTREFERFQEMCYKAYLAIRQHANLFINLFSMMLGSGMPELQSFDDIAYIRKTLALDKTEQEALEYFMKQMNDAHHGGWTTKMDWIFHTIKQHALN

What does the source list for `Cc1nn(C)c(C)c1-n1c(=O)n(C)c2cnc3ccc(-c4cnc(N)c(F)c4)cc3c21` [Example 142.1, 8-(6-Amino-5-fluoro-pyridin-3-yl)-3-methyl-1-(1,3,5-trimethyl-1H-pyrazol-4-yl)-1,3-dihydro-imidazo[4,5-c]quinolin-2-one]?
solubility (Solubility at pH 6.8; [3]): > 417 µg/mL; IC50 (PI3K alpha): 28 nM; IC50 [1]: 300 nM; IC50 [2]: 306 nM

With `CNc1ncc(-c2ccc3ncc4c(c3c2)n(-c2c(C)nn(C)c2C)c(=O)n4C)cc1Cl` [Example 146.4, 8-(5-Chloro-6-methylamino-pyridin-3-yl)-3-methyl-1-(1,3,5-trimethyl-1H-pyrazol-4-yl)-1,3-dihydro-imidazo[4,5-c]quinolin-2-one] as the compound, how does the solubility (Solubility at pH 6.8; [3]) read?
Its solubility is 75 µg/mL (≈ 167 µM).

And the IC50 (PI3K alpha)?
Its IC50 is 35 nM.

What about the IC50 [1] of the same compound?
Its IC50 is 127 nM.

What about the IC50 [2] of the same compound?
The IC50 was 133 nM.

With `CNc1ncc(-c2ccc3ncc4c(c3c2)n(-c2cc(C)nn2C)c(=O)n4C)cc1Cl` [Example 146.5, 8-(5-Chloro-6-methylamino-pyridin-3-yl)-1-(2,5-dimethyl-2H-pyrazol-3-yl)-3-methyl-1,3-dihydro-imidazo[4,5-c]quinolin-2-one] as the compound, how does the solubility (Solubility at pH 6.8; [3]) read?
The solubility was 3 µg/mL (≈ 6.91 µM).

And the IC50 (PI3K alpha)?
The IC50 was 9 nM.

What about the IC50 [1] of the same compound?
Its IC50 is 29 nM.

What about the IC50 [2] of the same compound?
Its IC50 is 59 nM.

What does the source list for `Cc1noc(C)c1-n1c(=O)n(C)c2cnc3ccc(-c4cnc(N)c(Cl)c4)cc3c21` [Example 148.4, 8-(6-Amino-5-chloro-pyridin-3-yl)-1-(3,5-dimethyl-isoxazol-4-yl)-3-methyl-1,3-dihydro-imidazo[4,5-c]quinolin-2-one]?
solubility (Solubility at pH 6.8; [3]): 3 µg/mL (≈ 7.13 µM); IC50 (PI3K alpha): 100 nM; IC50 [1]: 207 nM; IC50 [2]: 370 nM

With `CNc1cc(-c2ccc3ncc4c(c3c2)n(-c2cn(C)nc2C)c(=O)n4C)cnc1F` [Example 150.2, 1-(1,3-Dimethyl-1H-pyrazol-4-yl)-8-(6-fluoro-5-methylamino-pyridin-3-yl)-3-methyl-1,3-dihydro-imidazo[4,5-c]quinolin-2-one] as the compound, how does the solubility (Solubility at pH 6.8; [3]) read?
The solubility was 4 µg/mL (≈ 9.58 µM).

What about the IC50 (PI3K alpha) of the same compound?
The IC50 was 9 nM.

What about the IC50 [1] of the same compound?
Its IC50 is 10 nM.

What about the IC50 [2] of the same compound?
The IC50 was 15 nM.

What does the source list for `CCNc1cc(-c2ccc3ncc4c(c3c2)n(-c2c(C)nn(C)c2C)c(=O)n4C)cnc1F` [Example 154.1, 8-(5-Ethylamino-6-fluoro-pyridin-3-yl)-3-methyl-1-(1,3,5-trimethyl-1H-pyrazol-4-yl)-1,3-dihydro-imidazo[4,5-c]quinolin-2-one]?
solubility (Solubility at pH 6.8; pH 6.8): 2 µg/mL (≈ 4.49 µM); IC50 (PI3K alpha): 157 nM; IC50 [1]: 104 nM; IC50 [2]: 141 nM

Which results are given for `Cc1ncc(-c2ccc3ncc4c(c3c2)n(-c2cn(C)nc2C)c(=O)n4C)cc1N(C)C` [Example 164, 8-(5-Dimethylamino-6-methyl-pyridin-3-yl)-1-(1,3-dimethyl-1H-pyrazol-4-yl)-3-methyl-1,3-dihydro-imidazo[4,5-c]quinolin-2-one]?
solubility (Solubility at pH 6.8; [3]): 400 µg/mL (≈ 936 µM); IC50 (PI3K alpha): 5 nM; IC50 [1]: < 5 nM; IC50 [2]: 7 nM

What does the source list for `CCNc1ncc(-c2ccc3ncc4c(c3c2)n(-c2cn(C)nc2C)c(=O)n4C)cc1COCC` [Example 167, 1-(1,3-Dimethyl-1H-pyrazol-4-yl)-8-(5-ethoxymethyl-6-ethylamino-pyridin-3-yl)-3-methyl-1,3-dihydro-imidazo[4,5-c]quinolin-2-one]?
solubility (Solubility at pH 6.8; [3]): 4 µg/mL (≈ 8.48 µM); IC50 (PI3K alpha): 33 nM; IC50 [1]: 72 nM; IC50 [2]: 91 nM

Which results are given for `CCn1cc(-n2c(=O)n(C)c3cnc4ccc(-c5cnc(N)c(COC)c5)cc4c32)c(C)n1` [Example 168.2, 8-(6-Amino-5-methoxymethyl-pyridin-3-yl)-1-(1-ethyl-3-methyl-1H-pyrazol-4-yl)-3-methyl-1,3-dihydro-imidazo[4,5-c]quinolin-2-one]?
solubility (Solubility at pH 6.8; [3]): 24 µg/mL (≈ 54.1 µM); IC50 (PI3K alpha): 23 nM; IC50 [1]: 18 nM; IC50 [2]: 19 nM

Which solubility (Solubility at pH 6.8; [3]) does the source give for `Cc1ncc(-c2ccc3ncc4c(c3c2)n(-c2cn(C)nc2C)c(=O)n4C)cc1O` [Example 185.1, 1-(1,3-Dimethyl-1H-pyrazol-4-yl)-8-(5-hydroxy-6-methyl-pyridin-3-yl)-3-methyl-1,3-dihydro-imidazo[4,5-c]quinolin-2-one] here?
Its solubility is 17 µg/mL (≈ 42.5 µM).

What about the IC50 (PI3K alpha) of the same compound?
Its IC50 is 5 nM.

What about the IC50 [1] of the same compound?
The IC50 was 46 nM.

What about the IC50 [2] of the same compound?
Its IC50 is 326 nM.

With `Cc1ncc(-c2ccc3ncc4c(c3c2)n(-c2cn(C)nc2C)c(=O)n4C)cc1OC(CF)CF` [Example 189, 1-(1,3-Dimethyl-1H-pyrazol-4-yl)-8-[5-(2-fluoro-1-fluoromethyl-ethoxy)-6-methyl-pyridin-3-yl]-3-methyl-1,3-dihydro-imidazo[4,5-c]quinolin-2-one] as the compound, how does the solubility (Solubility at pH 6.8; [3]) read?
Its solubility is 15 µg/mL (≈ 31.3 µM).

And the IC50 (PI3K alpha)?
Its IC50 is 4 nM.

And the IC50 [1]?
Its IC50 is less than 5 nM.

What about the IC50 [2] of the same compound?
Its IC50 is 5 nM.

What does the source list for `Cc1nn(C)cc1-n1c(=O)n(C)c2cnc3ccc(-c4cnc(CO)c(OC(C)C)c4)cc3c21` [Example 190, 1-(1,3-Dimethyl-1H-pyrazol-4-yl)-8-(6-hydroxymethyl-5-isopropoxy-pyridin-3-yl)-3-methyl-1,3-dihydro-imidazo[4,5-c]quinolin-2-one]?
solubility (Solubility at pH 6.8; [3]): 5 µg/mL (≈ 10.9 µM); IC50 (PI3K alpha): 13 nM; IC50 [1]: 16 nM; IC50 [2]: 54 nM

With `COCc1ncc(-c2ccc3ncc4c(c3c2)n(-c2cn(C)nc2C)c(=O)n4C)cc1OC(C)C` [Example 191.1, 1-(1,3-Dimethyl-1H-pyrazol-4-yl)-8-(5-isopropoxy-6-methoxymethyl-pyridin-3-yl)-3-methyl-1,3-dihydro-imidazo[4,5-c]quinolin-2-one] as the compound, how does the solubility (Solubility at pH 6.8; [3]) read?
The solubility was greater than 473 µg/mL.

And the IC50 (PI3K alpha)?
The IC50 was 14 nM.

And the IC50 [1]?
The IC50 was 54 nM.

What about the IC50 [2] of the same compound?
Its IC50 is 56 nM.

Which results are given for `COc1cc(-c2ccc3ncc4c(c3c2)n(-c2cn(C)nc2C)c(=O)n4C)cnc1CO` [Example 193, 1-(1,3-Dimethyl-1H-pyrazol-4-yl)-8-(6-hydroxymethyl-5-methoxy-pyridin-3-yl)-3-methyl-1,3-dihydro-imidazo[4,5-c]quinolin-2-one]?
solubility (Solubility at pH 6.8; [3]): 150 µg/mL (≈ 348 µM); IC50 (PI3K alpha): 19 nM; IC50 [1]: 160 nM; IC50 [2]: 101 nM

Which solubility (Solubility at pH 6.8; [3]) does the source give for `COCc1ncc(-c2ccc3ncc4c(c3c2)n(-c2cn(C)nc2C)c(=O)n4C)cc1OC` [Example 195.1, 1-(1,3-Dimethyl-1H-pyrazol-4-yl)-8-(5-methoxy-6-methoxymethyl-pyridin-3-yl)-3-methyl-1,3-dihydro-imidazo[4,5-c]quinolin-2-one] here?
The solubility was 439 µg/mL (≈ 988 µM).

And the IC50 (PI3K alpha)?
Its IC50 is 18 nM.

And the IC50 [1]?
Its IC50 is 114 nM.

And the IC50 [2]?
Its IC50 is 154 nM.

What does the source list for `COCc1ncc(-c2ccc3ncc4c(c3c2)n(-c2cn(C(C)C)nc2C)c(=O)n4C)cc1OC` [Example 195.2, 1-(1-Isopropyl-3-methyl-1H-pyrazol-4-yl)-8-(5-methoxy-6-methoxymethyl-pyridin-3-yl)-3-methyl-1,3-dihydro-imidazo[4,5-c]quinolin-2-one]?
solubility (Solubility at pH 6.8; [3]): > 473 µg/mL; IC50 (PI3K alpha): 37 nM; IC50 [1]: 189 nM; IC50 [2]: 343 nM

Which results are given for `CCn1cc(-n2c(=O)n(C)c3cnc4ccc(-c5cnc(COC)c(OC)c5)cc4c32)c(C)n1` [Example 195.3, 1-(1-Ethyl-3-methyl-1H-pyrazol-4-yl)-8-(5-methoxy-6-methoxymethyl-pyridin-3-yl)-3-methyl-1,3-dihydro-imidazo[4,5-c]quinolin-2-one]?
solubility (Solubility at pH 6.8; [3]): > 459 µg/mL; IC50 (PI3K alpha): 48 nM; IC50 [1]: 184 nM; IC50 [2]: 255 nM

For `[2H]C([2H])([2H])OCc1ncc(-c2ccc3ncc4c(c3c2)n(-c2cn(C)nc2Cl)c(=O)n4C)cc1OC` [Example 199, 1-(3-Chloro-1-methyl-1H-pyrazol-4-yl)-8-(5-methoxy-6-trideuteromethoxymethyl-pyridin-3-yl)-3-methyl-1,3-dihydro-imidazo[4,5-c]quinolin-2-one], which solubility (Solubility at pH 6.8; [3]) is on record?
The solubility was 8 µg/mL (≈ 17.1 µM).

And the IC50 (PI3K alpha)?
The IC50 was 15 nM.

And the IC50 [1]?
The IC50 was 26 nM.

What about the IC50 [2] of the same compound?
Its IC50 is 29 nM.

What does the source list for `COCc1cc(-c2ccc3ncc4c(c3c2)n(-c2cn(C)nc2C)c(=O)n4C)cnc1OC` [Example 202, 1-(1,3-Dimethyl-1H-pyrazol-4-yl)-8-(6-methoxy-5-methoxymethyl-pyridin-3-yl)-3-methyl-1,3-dihydro-imidazo[4,5-c]quinolin-2-one]?
solubility (Solubility at pH 6.8; [3]): 16 µg/mL (≈ 36 µM); IC50 (PI3K alpha): 11 nM; IC50 [1]: 29 nM; IC50 [2]: 28 nM

What does the source list for `Cc1nn(C)cc1-n1c(=O)n(C)c2cnc3ccc(-c4cnc5c(c4)OCCN5C)cc3c21` [Example 209, 1-(1,3-Dimethyl-1H-pyrazol-4-yl)-3-methyl-8-(4-methyl-3,4-dihydro-2H-pyrido[3,2-b][1,4]oxazin-7-yl)-1,3-dihydro-imidazo[4,5-c]quinolin-2-one]?
solubility (Solubility at pH 6.8; pH 6.8): 2 µg/mL (≈ 4.53 µM); IC50 (PI3K alpha): 6 nM; IC50 [1]: 22 nM; IC50 [2]: 66 nM

Which results are given for `Cc1nn(C)cc1-n1c(=O)n(C)c2cnc3ccc(-c4cncc(C(C)(C)O)c4)cc3c21` [Example 215.2, 1-(1,3-Dimethyl-1H-pyrazol-4-yl)-8-[5-(1-hydroxy-1-methyl-ethyl)-pyridin-3-yl]-3-methyl-1,3-dihydro-imidazo[4,5-c]quinolin-2-one]?
solubility (Solubility at pH 6.8; [3]): > 428 µg/mL; IC50 (PI3K alpha): 14 nM; IC50 [1]: 113 nM; IC50 [2]: 178 nM

With `Cc1nn(C)cc1-n1c(=O)n(C)c2cnc3ccc(-c4cncc(C5(O)CCCC5)c4)cc3c21` [Example 218, 1-(1,3-Dimethyl-1H-pyrazol-4-yl)-8-[5-(1-hydroxy-cyclopentyl)-pyridin-3-yl]-3-methyl-1,3-dihydro-imidazo[4,5-c]quinolin-2-one] as the compound, how does the solubility (Solubility at pH 6.8; [3]) read?
Its solubility is 14 µg/mL (≈ 30.8 µM).

And the IC50 (PI3K alpha)?
Its IC50 is 13 nM.

And the IC50 [1]?
Its IC50 is 27 nM.

And the IC50 [2]?
Its IC50 is 53 nM.
